For experiment [1], the target named is T1, NLRP3 (Homo sapiens, UniProt Q96P20). In words: THP-1 cells pyroptosis assay. It is filed as cell-based. The arrangement: Seed THP-1 cells (25,000cells/well) containing 1.0 μg/ml LPS in 40 μl of RPMI medium; host or cells: THP-1 cells. The following applies: LPS 1 μg/ml, nigericin 5 μM, resazurin readout. The procedure:
The cells were routinely passaged and grown to confluency (˜10^6 cells/ml). On the day of the experiment, THP-1 cells were harvested and resuspended into RPMI medium (without FBS). The cells were then counted and viability (>90%) checked by Trypan blue (Sigma #T8154). […] To this diluted cell solution was added LPS (Sigma #L4524) to give a 1 μg/ml Final Assay Concentration (FAC). 40 μl of the final preparation was aliquoted into each well of a 96-well plate. The plate thus prepared was used for compound screening.
The following method step-by-step assay was followed for compound screening. • 1. […] Incubate for 3 hrs at 37° C., 5% CO2 • 4. Add 5 μl nigericin (Sigma #N7143) (FAC 5 μM) to all wells • 5. Incubate for 1 hr at 37° C., 5% CO2 • 6. At the end of the incubation period, spin plates at 300×g for 3 mins and remove supernatant • 7. Then add 50 μl of resazurin (Sigma #R7017) (FAC 100 μM resazurin in RPMI medium without FBS) and incubate plates for a further 1-2 hrs at 37° C. and 5% CO2 • 8. […] IC50 data is fitted to a non-linear regression equation (log inhibitor vs response-variable slope 4-parameters)
(Resazurin is reduced to fluorescent resorufin, in cell work by metabolically active cells.)

The target of experiment [2] is T1, NLRP3. Description: Human whole blood IL-1β release assay. Format: cell-based. The arrangement: Human whole blood in Li-heparin tubes was obtained from healthy donors from a volunteer donor panel; from tissue; host or cells: human whole blood from healthy donors. The following applies: LPS 1 μg/ml, nigericin 10 μM, IL-1β AlphaLisa, read-out: HWB IC50. The procedure: For systemic delivery, the ability to inhibit NLRP3 when the compounds are present within the bloodstream is of great importance. For this reason, the NLRP3 inhibitory activity of a number of compounds in human whole blood was investigated in accordance with the following protocol.
Human whole blood in Li-heparin tubes was obtained from healthy donors from a volunteer donor panel. • 1. […] Incubate for 3 hrs at 37° C., 5% CO2 • 4. Add 10 μl nigericin (Sigma #N7143) (10 μM FAC) to all wells • 5. Incubate for 1 hr at 37° C., 5% CO2 • 6. At the end of the incubation period, spin plates at 300 ×g for 5 mins to pellet cells and remove 20 μl of supernatant and add to 96-well v-bottom plates for IL-1β analysis (note: these plates containing the supernatants can be stored at −80° C. to be analysed at a later date) • 7. IL-1β was measured according to the manufacturer protocol (Perkin Elmer-AlphaLisa IL-1 Kit AL220F-5000) • 8. IC50 data is fitted to a non-linear regression equation (log inhibitor vs response-variable slope 4-parameters)

Structures are written as SMILES. Counter-ions that a name gives are not always drawn.

T1 sequence (Q96P20 whole entry): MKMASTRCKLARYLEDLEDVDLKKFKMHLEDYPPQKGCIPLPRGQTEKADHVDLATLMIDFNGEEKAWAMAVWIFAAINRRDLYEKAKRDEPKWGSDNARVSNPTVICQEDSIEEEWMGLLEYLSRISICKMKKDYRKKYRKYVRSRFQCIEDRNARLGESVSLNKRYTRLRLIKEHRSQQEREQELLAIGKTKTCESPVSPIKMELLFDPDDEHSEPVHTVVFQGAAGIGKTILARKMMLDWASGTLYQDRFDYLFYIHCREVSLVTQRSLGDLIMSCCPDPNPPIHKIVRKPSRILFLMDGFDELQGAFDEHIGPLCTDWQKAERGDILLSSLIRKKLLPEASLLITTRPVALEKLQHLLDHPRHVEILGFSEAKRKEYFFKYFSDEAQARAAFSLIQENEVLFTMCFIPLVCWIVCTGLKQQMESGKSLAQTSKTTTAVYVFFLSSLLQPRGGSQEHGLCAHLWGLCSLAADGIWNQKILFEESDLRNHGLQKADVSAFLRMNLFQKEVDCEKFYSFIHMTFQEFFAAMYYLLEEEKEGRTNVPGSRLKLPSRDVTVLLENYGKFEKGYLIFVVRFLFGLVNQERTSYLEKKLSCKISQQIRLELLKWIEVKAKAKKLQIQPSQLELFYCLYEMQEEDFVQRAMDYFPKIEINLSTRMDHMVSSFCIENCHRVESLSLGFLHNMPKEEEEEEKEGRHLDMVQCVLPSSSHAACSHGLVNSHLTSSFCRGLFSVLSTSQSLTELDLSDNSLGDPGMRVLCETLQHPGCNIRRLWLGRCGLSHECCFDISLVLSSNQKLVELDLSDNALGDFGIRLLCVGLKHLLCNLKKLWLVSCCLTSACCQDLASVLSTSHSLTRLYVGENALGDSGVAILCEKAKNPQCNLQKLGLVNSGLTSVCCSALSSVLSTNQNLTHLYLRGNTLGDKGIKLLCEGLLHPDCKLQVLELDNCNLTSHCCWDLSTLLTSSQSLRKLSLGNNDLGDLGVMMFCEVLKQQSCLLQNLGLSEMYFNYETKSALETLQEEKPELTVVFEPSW

One may read the IC50 as the concentration that inhibits the measured activity by half. `Cc1cc(-c2c(C)cc3c(c2NC(=O)NS(C)(=O)=O)CCC3)ccn1` [Example 1, N-((6-Methyl-5-(2-methylpyridin-4-yl)-2,3-dihydro-1H-inden-4-yl)carbamoyl)methanesulfonamide]: the 50% inhibitory concentration (IC50) against NLRP3 [1] and at NLRP3 [2] was 500 to 1000 nM throughout.
In the case of `Cc1cc2c(c(NC(=O)NS(C)(=O)=O)c1-c1ccncc1)CCC2` [Example 2], the IC50 was ≤ 250 nM against NLRP3 [1] and 250 to 500 nM on NLRP3 [2].
The matching figures for `Cc1cc2c(c(NC(=O)NS(C)(=O)=O)c1-c1ccnc(OC(F)F)c1)CCC2` [Example 3]: ≤ 250 nM and 500 to 1000 nM.
The matching figures for `Cc1cc2c(c(NC(=O)NS(C)(=O)=O)c1-c1ccnc(OC3CC3)c1)CCC2` [Example 4]: ≤ 250 nM and 250 to 500 nM.
For `CCOc1cc(-c2c(C)cc3c(c2NC(=O)NS(C)(=O)=O)CCC3)ccn1` [Example 5], in that order: ≤ 250 nM and 250 to 500 nM.
Take `Cc1cc2c(c(NC(=O)NS(C)(=O)=O)c1-c1ccnc(O[C@H]3CC[C@@H](O)CC3)c1)CCC2` [Example 6]: the IC50 against NLRP3 [1] and on NLRP3 [2] was ≤ 250 nM in each case.
In the case of `COc1cc(-c2c(C)c(F)cc(C(C)C)c2NC(=O)NS(C)(=O)=O)ccn1` [Example 7], the results for the IC50 against NLRP3 [1] and on NLRP3 [2] were 250 to 500 nM and 500 to 1000 nM, respectively.
For `[2H]C([2H])([2H])Oc1cc(-c2c(C)c(F)cc(C(C)C)c2NC(=O)NS(C)(=O)=O)ccn1` [Example 8], in that order: 250 to 500 nM and 500 to 1000 nM.
The matching figures for `[2H]C([2H])([2H])Oc1cc(-c2c(C)cc3c(c2NC(=O)NS(C)(=O)=O)CCC3)ccn1` [Example 10]: ≤ 250 nM and 250 to 500 nM.
For `COc1cc(-c2c(C)cc3c(c2NC(=O)NS(=O)(=O)c2ccccc2)CCC3)ccn1` [Example 11], in that order: ≤ 250 nM and 1000 to 2000 nM.
Regarding `COc1cc(-c2c(C)cc3c(c2NC(=O)NS(=O)(=O)C2CC2)CCC3)ccn1` [Example 12], the IC50 on NLRP3 [1] is ≤ 250 nM; at NLRP3 [2], 500 to 1000 nM.
The matching figures for `COc1cc(-c2c(C)cc3c(c2NC(=O)NS(=O)(=O)N(C)C)CCC3)ccn1` [Example 13]: ≤ 250 nM and 500 to 1000 nM.
For `Cc1cc2c(c(NC(=O)NS(C)(=O)=O)c1-c1ccnc(OC3CCCCC3)c1)CCC2` [Example 16], in that order: ≤ 250 nM and 1000 to 2000 nM.
The matching figures for `Cc1cc2c(c(NC(=O)NS(=O)(=O)C(C)(C)C)c1-c1ccnc(OC3CCN(C)CC3)c1)CCC2` [Example 18]: ≤ 250 nM and 2000 to 5000 nM.
Consider `Cc1cc2c(c(NC(=O)NS(=O)(=O)c3ccccc3)c1-c1ccnc(OC3CCN(C)CC3)c1)CCC2` [Example 19], for which the values for the IC50 against NLRP3 [1] and at NLRP3 [2] were ≤ 250 nM and 500 to 1000 nM, respectively.
The matching figures for `Cc1cc2c(c(NC(=O)NS(C)(=O)=O)c1-c1ccnc(OC3CCN(C)CC3)c1C)CCC2` [Example 20]: 250 to 500 nM and 250 to 500 nM.
For `Cc1cc2c(c(NC(=O)NS(=O)(=O)C3CC3)c1-c1ccnc(OC3CCN(C)CC3)c1)CCC2` [Example 21], in that order: ≤ 250 nM and ≤ 250 nM.
For `Cc1cc2c(c(NC(=O)NS(C)(=O)=O)c1-c1ccnc(OC3CCOCC3)c1)CCC2` [Example 22], in that order: ≤ 250 nM and ≤ 250 nM.
For the compound `COCC(C)Oc1cc(-c2c(C)cc3c(c2NC(=O)NS(C)(=O)=O)CCC3)ccn1` (centres unmarked) [Example 25], the IC50 was ≤ 250 nM at NLRP3 [1] and 250 to 500 nM on NLRP3 [2].
For `Cc1cc2c(c(NC(=O)NS(=O)(=O)N(C)C)c1-c1ccnc(OC3CCN(C)CC3)c1)CCC2` [Example 26], in that order: ≤ 250 nM and ≤ 250 nM.
The matching figures for `Cc1cc2c(c(NC(=O)NS(C)(=O)=O)c1-c1ccnc(OC3CCN(C)CC3)c1)CCC2` [Example 28]: ≤ 250 nM and ≤ 250 nM.
Consider `COc1cc(-c2c(C)c(F)cc(C(C)C)c2NC(=O)NS(=O)(=O)c2ccn(C3CC3)n2)ccn1` [Example 29], for which the IC50 on NLRP3 [1] was ≤ 250 nM; on NLRP3 [2], 1000 to 2000 nM.
Consider `COc1cc(-c2c(NC(=O)NS(C)(=O)=O)c(C(C)C)cc(F)c2C2CC2)ccn1` [Example 31], for which the IC50 against NLRP3 [1] fell in the range of 500 to 1000 nM; at NLRP3 [2], 1000 to 2000 nM.
The matching figures for `COc1cc(-c2c(F)c(F)cc(C(C)C)c2NC(=O)NS(C)(=O)=O)ccn1` [Example 33]: 500 to 1000 nM and 1000 to 2000 nM.
The matching figures for `COc1cc(-c2c(C3CC3)cc3c(c2NC(=O)NS(C)(=O)=O)CCC3)ccn1` [Example 34]: ≤ 250 nM and 1000 to 2000 nM.
Regarding `COc1cc(-c2c(C)cc3c(c2NC(=O)NS(=O)(=O)c2ccn(C4CC4)n2)CCC3)ccn1` [Example 35], the IC50 against NLRP3 [1] is ≤ 250 nM; on NLRP3 [2], 500 to 1000 nM.
Regarding `Cc1cc2c(c(NC(=O)NS(C)(=O)=O)c1-c1ccnc(C#N)c1)CCC2` [Example 36], the IC50 on NLRP3 [1] and on NLRP3 [2] was 500 to 1000 nM each time.
As for `CCc1c(F)cc(C(C)C)c(NC(=O)NS(C)(=O)=O)c1-c1ccnc(OC)c1` [Example 38], the IC50 lay within 250 to 500 nM against NLRP3 [1] and 1000 to 2000 nM on NLRP3 [2].
For `COc1cc(-c2c(C)cc3c(c2NC(=O)NS(C)(=O)=O)CCC3)ccn1` [Example 40, N-((5-(2-Methoxypyridin-4-yl)-6-methyl-2,3-dihydro-1H-inden-4-yl)carbamoyl)methanesulfonamide, sodium salt], in that order: ≤ 250 nM and 250 to 500 nM.
For `CCS(=O)(=O)NC(=O)Nc1c2c(cc(C)c1-c1ccnc(OC)c1)CCC2` [Example 42], in that order: ≤ 250 nM and 250 to 500 nM.
In the case of `Cc1cc2c(c(NC(=O)NS(=O)(=O)c3ccn(C(C)C)n3)c1-c1ccnc(OC3CCN(C)CC3)c1)CCC2` [Example 44], the values for the IC50 on NLRP3 [1] and on NLRP3 [2] were ≤ 250 nM and 250 to 500 nM, respectively.
In the case of `Cc1cc2c(c(NC(=O)NS(=O)(=O)c3cc(C(C)(C)O)co3)c1-c1ccnc(OC3CCN(C)CC3)c1)CCC2` [Example 45], the IC50 against NLRP3 [1] is ≤ 250 nM; on NLRP3 [2], 500 to 1000 nM.
For `Cc1nc(C(C)C)c(NC(=O)NS(=O)(=O)c2cc(C(C)(C)O)co2)n1-c1ccncc1` [Example 46, 4-(2-Hydroxypropan-2-yl)-N-((4-isopropyl-2-methyl-1-(pyridin-4-yl)-1H-imidazol-5-yl)carbamoyl)furan-2-sulfonamide, ammonium salt], in that order: ≤ 250 nM and ≤ 250 nM.
The matching figures for `Cc1nc(C(C)C)c(NC(=O)NS(=O)(=O)c2ccn(C3CC3)n2)n1-c1ccncc1` [Example 47, 1-Cyclopropyl-N-((4-isopropyl-2-methyl-1-(pyridin-4-yl)-1H-imidazol-5-yl)carbamoyl)-1H-pyrazole-3-sulfonamide]: 250 to 500 nM and 250 to 500 nM.
Consider `COc1cc(-n2c(C)nc(C(C)C)c2NC(=O)NS(=O)(=O)c2cc(C(C)(C)O)co2)ccn1` [Example 48, 4-(2-Hydroxypropan-2-yl)-N-((4-isopropyl-1-(2-methoxypyridin-4-yl)-2-methyl-1H-imidazol-5-yl)carbamoyl)furan-2-sulfonamide], for which the IC50 against NLRP3 [1] and on NLRP3 [2] was 250 to 500 nM each time.
Consider `Cc1nc(C(C)C)c(NC(=O)NS(=O)(=O)N(C)C2CCN(C)C2)n1-c1ccncc1` (centres unmarked) [Example 49, 1-(5-Isopropyl-2-methyl-3-(4-pyridyl)imidazol-4-yl)-3-(methyl-(1-methylpyrrolidin-3-yl)sulfamoyl)urea], for which the IC50 against NLRP3 [1] fell in the range of 5000 to 10000 nM.

The record behind these values is patent publication US20220106288A1, “NOVEL SULFONEUREA COMPOUNDS” (INFLAZOME LIMITED, priority 2018, published 2022).
